Our source for the inhibition values is ChEMBL document CHEMBL4387741, “Optimization of novel reversible Bruton's tyrosine kinase inhibitors identified using Tethering-fragment-based screens” (Bioorg Med Chem, 2019).

As a reminder, the inhibition is the relative decrease from the control value, in per cent.

Assay [1] has as its target Myosin light chain kinase, smooth muscle (Homo sapiens) (UniProt Q15746). Briefly: Inhibition of wild-type human full length MYLK (M854 to E1845 residues) expressed in mammalian expression system at 1 uM by Kinomescan method relative to control.
Assay [2] deals with Tyrosine-protein kinase FRK (Homo sapiens) (UniProt P42685). Briefly: Inhibition of wild-type human partial length FRK (A215 to F503 residues) expressed in bacterial expression system at 1 uM by Kinomescan method relative to control.
Assay [3] deals with Phosphorylase b kinase gamma catalytic chain, skeletal muscle/heart isoform (Homo sapiens) (UniProt Q16816). Briefly: Inhibition of wild-type human full length PHKG1 (M1 to Y387 residues) expressed in bacterial expression system at 1 uM by Kinomescan method relative to control.
Assay [4] addresses Receptor-interacting serine/threonine-protein kinase 4 (Homo sapiens) (UniProt P57078). Put plainly: Inhibition of wild-type human partial length RIPK4 (M1 to V303 residues) expressed in mammalian expression system at 1 uM by Kinomescan method relative to control.
In assay [5] the target is Mitogen-activated protein kinase 3 (Homo sapiens) (UniProt P27361). Put plainly: Inhibition of wild-type human full length ERK1 (M1 to P379 residues) expressed in bacterial expression system at 1 uM by Kinomescan method relative to control.
Sequence of Mitogen-activated protein kinase 3 (Homo sapiens) (P27361 whole entry, the tested form may be a part): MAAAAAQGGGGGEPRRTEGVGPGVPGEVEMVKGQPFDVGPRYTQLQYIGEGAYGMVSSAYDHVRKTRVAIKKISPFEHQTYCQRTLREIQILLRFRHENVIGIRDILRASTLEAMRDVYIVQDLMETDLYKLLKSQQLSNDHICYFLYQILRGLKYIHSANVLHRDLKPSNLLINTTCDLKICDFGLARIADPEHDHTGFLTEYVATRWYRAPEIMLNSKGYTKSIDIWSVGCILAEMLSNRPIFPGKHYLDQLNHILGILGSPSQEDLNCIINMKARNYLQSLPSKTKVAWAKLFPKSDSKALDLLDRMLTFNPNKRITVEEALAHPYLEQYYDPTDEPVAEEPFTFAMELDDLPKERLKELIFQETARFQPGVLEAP
Assay [6] addresses Aurora kinase B (Homo sapiens) (UniProt Q96GD4). Put plainly: Inhibition of wild-type human partial length AURKB (D25 to A303 residues) expressed in mammalian expression system at 1 uM by Kinomescan method relative to control.
In assay [7] the target is Tyrosine-protein kinase JAK3 (Homo sapiens) (UniProt P52333). Put plainly: Inhibition of wild-type human partial length JAK3 JH1 catalytic domain (I781 to S1124 residues) expressed in mammalian expression system at 1 uM by Kinomescan method relative to control.
Assay [8] concerns the target G protein-coupled receptor kinase 3 (Homo sapiens) (UniProt P35626). Briefly: Inhibition of wild-type human full length GRK3 (M1 to L688 residues) expressed in mammalian expression system at 1 uM by Kinomescan method relative to control.
The test system of assay [9] is Receptor-type tyrosine-protein kinase FLT3 (Homo sapiens), P36888 [D835V]. Put plainly: Inhibition of human partial length FLT3 D835V mutant (V592 to Y969 residues) expressed in bacterial expression system at 10 uM by Kinomescan method relative to control.
The target of assay [10] is Serine/threonine-protein kinase TBK1 (Homo sapiens) (UniProt Q9UHD2). Put plainly: Inhibition of wild-type human full length TBK1 (M1 to L729 residues) expressed in mammalian expression system at 10 uM by Kinomescan method relative to control.
Assay [11] concerns the target Non-receptor tyrosine-protein kinase TNK1 (Homo sapiens) (UniProt Q13470). Put plainly: Inhibition of wild-type human full length TNK1 (M1 to P661 residues) expressed in bacterial expression system at 10 uM by Kinomescan method relative to control.
Assay [12] deals with Serine/threonine-protein kinase 32A (Homo sapiens) (UniProt Q8WU08). Briefly: Inhibition of wild-type human full length YANK1 (M1 to L396 residues) expressed in mammalian expression system at 10 uM by Kinomescan method relative to control.
Sequence of Serine/threonine-protein kinase 32A (Homo sapiens) (Q8WU08 whole entry, the tested form may be a part): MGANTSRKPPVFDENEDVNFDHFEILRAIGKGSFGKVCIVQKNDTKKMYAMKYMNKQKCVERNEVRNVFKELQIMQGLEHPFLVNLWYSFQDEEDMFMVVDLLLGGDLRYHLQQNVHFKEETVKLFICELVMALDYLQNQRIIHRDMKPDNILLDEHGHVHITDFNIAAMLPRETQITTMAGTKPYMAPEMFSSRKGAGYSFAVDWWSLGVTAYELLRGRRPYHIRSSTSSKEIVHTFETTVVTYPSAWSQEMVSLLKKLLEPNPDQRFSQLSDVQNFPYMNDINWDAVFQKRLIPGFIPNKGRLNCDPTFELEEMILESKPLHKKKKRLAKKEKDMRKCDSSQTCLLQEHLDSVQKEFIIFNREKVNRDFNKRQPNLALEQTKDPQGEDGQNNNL
For assay [13], the target named is Serine/threonine-protein kinase VRK2 (Homo sapiens) (UniProt Q86Y07). Briefly: Inhibition of wild-type human partial length VRK2 (M1 to T336 residues) expressed in mammalian expression system at 10 uM by Kinomescan method relative to control.
Sequence of Serine/threonine-protein kinase VRK2 (Homo sapiens) (Q86Y07 whole entry, the tested form may be a part): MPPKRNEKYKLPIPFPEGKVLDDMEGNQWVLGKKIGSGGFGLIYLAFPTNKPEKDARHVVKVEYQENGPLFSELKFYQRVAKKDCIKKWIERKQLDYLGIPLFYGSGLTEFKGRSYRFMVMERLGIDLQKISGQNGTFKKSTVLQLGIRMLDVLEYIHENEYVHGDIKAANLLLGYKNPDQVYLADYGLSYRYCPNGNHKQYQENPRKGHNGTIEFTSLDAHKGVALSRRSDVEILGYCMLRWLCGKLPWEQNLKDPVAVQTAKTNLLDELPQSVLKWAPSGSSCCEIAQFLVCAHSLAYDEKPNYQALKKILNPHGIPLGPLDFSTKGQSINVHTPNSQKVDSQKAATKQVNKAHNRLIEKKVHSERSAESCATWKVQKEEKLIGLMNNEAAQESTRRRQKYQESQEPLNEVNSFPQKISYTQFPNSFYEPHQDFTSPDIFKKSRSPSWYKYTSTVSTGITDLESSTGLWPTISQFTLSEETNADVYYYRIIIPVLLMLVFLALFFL
Assay [14] has as its target Ribosomal protein S6 kinase alpha-1 (Homo sapiens) (UniProt Q15418). Briefly: Inhibition of wild-type human partial length N-terminal RSK1 Kinase domain 1 (M1 to E388 residues) expressed in bacterial expression system at 10 uM by Kinomescan method relative to control.
Assay [15] has as its target Tyrosine-protein kinase Blk (Homo sapiens) (UniProt P51451). Put plainly: Inhibition of wild-type human partial length BLK (G211 to L503 residues) expressed in bacterial expression system at 10 uM by Kinomescan method relative to control.
Assay [16] deals with Macrophage colony-stimulating factor 1 receptor (Homo sapiens) (UniProt P07333). Briefly: Inhibition of wild-type human partial length autoinhibited CSF1R (Y538 to S939 residues) expressed in mammalian expression system at 10 uM by Kinomescan method relative to control.
The subject of assay [17] is Receptor-type tyrosine-protein kinase FLT3 (Homo sapiens), P36888 [N841I]. Put plainly: Inhibition of human partial length FLT3 N841I mutant (V592 to Y969 residues) expressed in bacterial expression system at 10 uM by Kinomescan method relative to control.
Assay [18] deals with Microtubule-associated serine/threonine-protein kinase 1 (Homo sapiens) (UniProt Q9Y2H9). Put plainly: Inhibition of wild-type human partial length MAST1 (S346 to V730 residues) expressed in mammalian expression system at 10 uM by Kinomescan method relative to control.
Sequence of Microtubule-associated serine/threonine-protein kinase 1 (Homo sapiens) (Q9Y2H9 whole entry, looked up, the tested form may be a part): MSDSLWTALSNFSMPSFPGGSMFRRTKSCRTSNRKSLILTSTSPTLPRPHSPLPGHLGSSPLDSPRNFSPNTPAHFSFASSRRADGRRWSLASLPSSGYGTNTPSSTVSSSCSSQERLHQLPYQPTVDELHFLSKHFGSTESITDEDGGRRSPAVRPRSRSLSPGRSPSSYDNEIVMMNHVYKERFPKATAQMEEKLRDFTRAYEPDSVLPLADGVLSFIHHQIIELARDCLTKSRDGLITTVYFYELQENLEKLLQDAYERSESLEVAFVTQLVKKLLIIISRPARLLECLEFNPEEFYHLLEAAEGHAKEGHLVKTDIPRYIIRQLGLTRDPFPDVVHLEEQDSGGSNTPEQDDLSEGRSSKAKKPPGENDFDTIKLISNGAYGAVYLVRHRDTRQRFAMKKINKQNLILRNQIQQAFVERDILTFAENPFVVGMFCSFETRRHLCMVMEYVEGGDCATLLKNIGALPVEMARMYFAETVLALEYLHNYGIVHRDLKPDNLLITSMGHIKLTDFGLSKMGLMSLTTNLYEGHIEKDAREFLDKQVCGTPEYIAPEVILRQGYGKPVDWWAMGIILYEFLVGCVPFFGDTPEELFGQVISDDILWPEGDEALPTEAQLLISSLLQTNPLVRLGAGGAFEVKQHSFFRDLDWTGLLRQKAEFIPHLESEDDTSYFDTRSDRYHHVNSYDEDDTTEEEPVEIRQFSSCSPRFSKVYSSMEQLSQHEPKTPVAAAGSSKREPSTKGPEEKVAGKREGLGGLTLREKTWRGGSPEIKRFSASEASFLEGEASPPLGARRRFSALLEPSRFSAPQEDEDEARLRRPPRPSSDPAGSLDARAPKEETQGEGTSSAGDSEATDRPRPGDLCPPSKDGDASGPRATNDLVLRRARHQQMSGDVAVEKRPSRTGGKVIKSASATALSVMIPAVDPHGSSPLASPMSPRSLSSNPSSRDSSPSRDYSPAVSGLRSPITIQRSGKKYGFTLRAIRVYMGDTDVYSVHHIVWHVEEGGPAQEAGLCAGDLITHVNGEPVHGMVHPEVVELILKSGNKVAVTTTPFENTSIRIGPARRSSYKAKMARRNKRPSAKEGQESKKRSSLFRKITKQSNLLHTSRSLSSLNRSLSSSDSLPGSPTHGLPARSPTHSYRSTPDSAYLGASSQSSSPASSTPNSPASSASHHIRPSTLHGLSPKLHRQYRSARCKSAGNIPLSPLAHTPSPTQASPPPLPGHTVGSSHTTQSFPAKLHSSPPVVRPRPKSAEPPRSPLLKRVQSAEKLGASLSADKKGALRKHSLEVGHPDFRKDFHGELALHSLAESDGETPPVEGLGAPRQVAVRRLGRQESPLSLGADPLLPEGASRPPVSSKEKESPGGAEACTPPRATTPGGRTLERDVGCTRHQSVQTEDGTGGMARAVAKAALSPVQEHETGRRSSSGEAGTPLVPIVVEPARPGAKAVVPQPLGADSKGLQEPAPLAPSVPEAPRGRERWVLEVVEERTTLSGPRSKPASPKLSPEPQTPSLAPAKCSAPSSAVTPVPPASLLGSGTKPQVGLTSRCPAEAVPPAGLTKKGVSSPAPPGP
The test system of assay [19] is Epidermal growth factor receptor (Homo sapiens), P00533 [L861Q]. Put plainly: Inhibition of human partial length EGFR L861Q mutant (R669 to V1011 residues) expressed in bacterial expression system at 10 uM by Kinomescan method relative to control.
Assay [20] has as its system Phosphatidylinositol 4,5-bisphosphate 3-kinase catalytic subunit alpha isoform (Homo sapiens), P42336 [H1047Y]. Put plainly: Inhibition of human partial length PIK3CA H1047Y mutant (R108 to N1068 residues) expressed in mammalian expression system at 10 uM by Kinomescan method relative to control.
In assay [21] the target is Mitogen-activated protein kinase 8 (Homo sapiens) (UniProt P45983). Briefly: Inhibition of wild-type human full length JNK1 (M1 to Q384 residues) expressed in mammalian expression system at 10 uM by Kinomescan method relative to control.
Sequence of Mitogen-activated protein kinase 8 (Homo sapiens) (P45983 whole entry, the tested form may be a part): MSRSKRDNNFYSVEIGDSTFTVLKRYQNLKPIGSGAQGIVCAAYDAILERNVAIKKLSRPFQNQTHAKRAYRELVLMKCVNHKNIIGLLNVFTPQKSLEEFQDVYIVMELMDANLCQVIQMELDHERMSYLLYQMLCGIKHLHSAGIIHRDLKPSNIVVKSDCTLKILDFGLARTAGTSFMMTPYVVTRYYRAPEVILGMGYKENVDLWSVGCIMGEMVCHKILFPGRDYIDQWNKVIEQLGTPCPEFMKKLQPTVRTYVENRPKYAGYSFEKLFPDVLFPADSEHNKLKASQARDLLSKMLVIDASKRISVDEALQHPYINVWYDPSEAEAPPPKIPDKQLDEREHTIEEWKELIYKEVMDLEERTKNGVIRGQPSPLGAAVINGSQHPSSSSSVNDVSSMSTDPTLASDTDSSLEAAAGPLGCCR
Assay [22] has as its target Mitogen-activated protein kinase kinase kinase 20 (Homo sapiens) (UniProt Q9NYL2). Briefly: Inhibition of wild-type human partial length ZAK (M1 to L331 residues) expressed in bacterial expression system at 10 uM by Kinomescan method relative to control.
Assay [23] addresses Protein-tyrosine kinase 2-beta (Homo sapiens) (UniProt Q14289). Briefly: Inhibition of wild-type human full length PYK2 (M1 to E967 residues) expressed in bacterial expression system at 10 uM by Kinomescan method relative to control.
In assay [24] the target is Serine/threonine-protein kinase Nek6 (Homo sapiens) (UniProt Q9HC98). Put plainly: Inhibition of wild-type human full length NEK6 (M8 to T313 residues) expressed in bacterial expression system at 10 uM by Kinomescan method relative to control.
The target of assay [25] is Serine/threonine-protein kinase ICK (Homo sapiens) (UniProt Q9UPZ9). Put plainly: Inhibition of wild-type human partial length ICK (M1 to P314 residues) expressed in mammalian expression system at 10 uM by Kinomescan method relative to control.
Assay [26] addresses Dual specificity tyrosine-phosphorylation-regulated kinase 2 (Homo sapiens) (UniProt Q92630). Briefly: Inhibition of wild-type human full length DYRK2 (M1 to S528 residues) expressed in mammalian expression system at 10 uM by Kinomescan method relative to control.
Assay [27] addresses Insulin receptor-related protein (Homo sapiens) (UniProt P14616). Briefly: Inhibition of wild-type human partial length INSRR (R950 to E1278 residues) expressed in bacterial expression system at 10 uM by Kinomescan method relative to control.

Sequence of G protein-coupled receptor kinase 3 (Homo sapiens) (P35626 whole entry, the tested form may be a part): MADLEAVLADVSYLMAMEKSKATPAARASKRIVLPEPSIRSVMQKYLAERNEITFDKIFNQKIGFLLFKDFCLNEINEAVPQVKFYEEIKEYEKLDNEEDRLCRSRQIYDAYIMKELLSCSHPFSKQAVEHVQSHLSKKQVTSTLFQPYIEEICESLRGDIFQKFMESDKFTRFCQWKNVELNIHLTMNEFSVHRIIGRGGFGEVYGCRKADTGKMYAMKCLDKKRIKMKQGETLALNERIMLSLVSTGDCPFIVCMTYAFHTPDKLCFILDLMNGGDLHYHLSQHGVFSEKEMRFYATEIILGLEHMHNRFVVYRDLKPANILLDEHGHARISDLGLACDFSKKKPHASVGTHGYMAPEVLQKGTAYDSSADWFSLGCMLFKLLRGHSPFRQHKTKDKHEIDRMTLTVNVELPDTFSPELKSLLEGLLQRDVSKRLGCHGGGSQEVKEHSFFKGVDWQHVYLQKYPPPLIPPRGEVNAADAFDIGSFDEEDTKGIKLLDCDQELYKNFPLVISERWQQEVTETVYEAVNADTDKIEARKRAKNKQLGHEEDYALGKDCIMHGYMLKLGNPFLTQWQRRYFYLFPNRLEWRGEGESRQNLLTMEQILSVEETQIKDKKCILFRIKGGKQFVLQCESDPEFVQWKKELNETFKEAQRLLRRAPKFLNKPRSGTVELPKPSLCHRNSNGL
Sequence of Phosphatidylinositol 4,5-bisphosphate 3-kinase catalytic subunit alpha isoform (Homo sapiens), P42336 [H1047Y] (P42336 whole entry H1047Y, the tested form may be a part, canonical isoform): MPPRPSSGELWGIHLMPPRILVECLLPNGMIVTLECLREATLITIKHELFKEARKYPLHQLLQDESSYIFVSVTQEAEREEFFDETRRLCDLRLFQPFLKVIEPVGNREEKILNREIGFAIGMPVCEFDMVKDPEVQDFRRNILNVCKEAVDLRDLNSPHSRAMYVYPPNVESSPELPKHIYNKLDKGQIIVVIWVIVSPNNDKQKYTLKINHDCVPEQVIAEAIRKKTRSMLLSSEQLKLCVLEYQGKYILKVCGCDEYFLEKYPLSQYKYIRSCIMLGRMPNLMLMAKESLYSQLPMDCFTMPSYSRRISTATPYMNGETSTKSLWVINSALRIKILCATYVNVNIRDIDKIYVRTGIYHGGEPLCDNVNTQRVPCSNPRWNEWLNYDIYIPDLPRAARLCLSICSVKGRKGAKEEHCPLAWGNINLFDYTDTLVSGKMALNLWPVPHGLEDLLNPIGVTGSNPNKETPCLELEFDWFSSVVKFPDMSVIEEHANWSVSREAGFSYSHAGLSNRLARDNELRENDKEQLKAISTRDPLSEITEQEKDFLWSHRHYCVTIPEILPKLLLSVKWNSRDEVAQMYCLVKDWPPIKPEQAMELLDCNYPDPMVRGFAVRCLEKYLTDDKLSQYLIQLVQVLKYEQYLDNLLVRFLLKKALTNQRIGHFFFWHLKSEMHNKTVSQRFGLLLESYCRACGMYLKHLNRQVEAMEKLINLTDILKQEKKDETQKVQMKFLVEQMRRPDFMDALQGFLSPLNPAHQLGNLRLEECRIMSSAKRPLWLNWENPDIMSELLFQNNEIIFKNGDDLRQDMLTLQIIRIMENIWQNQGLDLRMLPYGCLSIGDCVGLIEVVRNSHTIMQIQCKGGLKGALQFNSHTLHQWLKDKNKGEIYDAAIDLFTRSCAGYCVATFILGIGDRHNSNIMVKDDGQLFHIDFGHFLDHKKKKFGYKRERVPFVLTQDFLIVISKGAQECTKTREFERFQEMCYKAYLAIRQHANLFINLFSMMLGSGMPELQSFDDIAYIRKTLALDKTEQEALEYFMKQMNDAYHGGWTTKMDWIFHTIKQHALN

Consider `O=C(Nc1cccc([C@@H]2CN(c3ncnc4[nH]ccc34)CCN2CCO)c1)Nc1c(F)cccc1N1CCCC1`, for which the inhibition in assay [1] turned out to be 100%; in [2], 99%; in assay [3] it was 98%; in assay [4], 80%; in assay [5], 100%; in assay [6], 4.4%. Further, the inhibition in assay [7] was determined as 4.3%; in assay [8], 93%.
On to `O=C(Nc1cccc([C@H]2CCCN(c3ncnc4[nH]ccc34)C2)c1)Nc1ccccc1N1CCCC1`, for which the inhibition in assay [9] was found to be 4.3%; in assay [10] it was 57%; in assay [11], 65%; in assay [12] it was 98%; in [13], 93%; in [14] it was 42%. Further, the inhibition in assay [15] was determined as 43%; in assay [16], 64%; in assay [17] it was 12%; in [18] it was 69%; in [19], 85%; in assay [20] it was 61%. Also, the inhibition in assay [21] was determined as 42%; in assay [22], 100%; in assay [23], 96%; in [24], 69%; in [25], 100%; in assay [26], 78%. Moreover, the inhibition in assay [27] turned out to be 100%.
